# Results from US20230017045A1, “PYRIDINE AND PYRIMIDINE CARBOXYLATE HERBICIDES AND METHODS OF USE THEREOF” (Dow AgroSciences LLC, priority 2017, published 2023).
# System: test plant species
# Assay: Post-emergent herbicidal activity test (greenhouse, foliar spray, visual growth reduction)
# Assay type: in vivo
# Settings: post-emergence, 336 h, ALOMY: blackgrass (Alopecurus myosuroides), 140 g ai/ha, 14 days after application, read-out: Visual Growth Reduction (%) 14 Days After Application, ALOMY
# Summary of the method: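 Greenhouse plants at first–second true leaf stage sprayed overhead at 187 L/ha with compound in acetone/water/isopropanol/DMSO/crop oil/X-77 carrier; controls received solvent blank. Injury rated visually after 14 d on a 0–100% scale versus untreated and control plants, converted to growth reduction.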
row,Structure (SMILES),pest or weed control at 140 g/ha
1,"O=C(O)c1nc(-c2ncc(Cl)cc2Cl)ccc1Cl [F195, 3′,5,5′-Trichloro-[2,2′-bipyridine]-6-carboxylic acid]",0 to 29%
2,"COC(=O)c1nc(-c2ccc(Cl)c3c2OC(F)(F)O3)ccc1Cl [F68, Methyl 3-chloro-6-(7-chloro-2,2-difluorobenzo[d] [1,3]dioxol-4-yl)picolinate]",0 to 29%

# Same assay, conditions: post-emergence, 336 h, AMARE: redroot pigweed (Amaranthus retroflexus), 140 g ai/ha, 14 days after application, read-out: Visual Growth Reduction (%) 14 Days After Application, AMARE
row,Structure (SMILES),pest or weed control at 140 g/ha
1,"O=C(O)c1nc(-c2ncc(Cl)cc2Cl)ccc1Cl [F195, 3′,5,5′-Trichloro-[2,2′-bipyridine]-6-carboxylic acid]",95 to 100%
2,"COC(=O)c1nc(-c2ccc(Cl)c3c2OC(F)(F)O3)ccc1Cl [F68, Methyl 3-chloro-6-(7-chloro-2,2-difluorobenzo[d] [1,3]dioxol-4-yl)picolinate]",0 to 29%

# Same assay, conditions: post-emergence, 336 h, AVEFA: wild oat (Avena fatua), 140 g ai/ha, 14 days after application, read-out: Visual Growth Reduction (%) 14 Days After Application, AVEFA
row,Structure (SMILES),pest or weed control at 140 g/ha
1,"O=C(O)c1nc(-c2ncc(Cl)cc2Cl)ccc1Cl [F195, 3′,5,5′-Trichloro-[2,2′-bipyridine]-6-carboxylic acid]",30 to 44%
2,"COC(=O)c1nc(-c2ccc(Cl)c3c2OC(F)(F)O3)ccc1Cl [F68, Methyl 3-chloro-6-(7-chloro-2,2-difluorobenzo[d] [1,3]dioxol-4-yl)picolinate]",0 to 29%

# Same assay, conditions: post-emergence, 336 h, CHEAL: lambsquarters (Chenopodium album), 140 g ai/ha, 14 days after application, read-out: Visual Growth Reduction (%) 14 Days After Application, CHEAL
row,Structure (SMILES),pest or weed control at 140 g/ha
1,"O=C(O)c1nc(-c2ncc(Cl)cc2Cl)ccc1Cl [F195, 3′,5,5′-Trichloro-[2,2′-bipyridine]-6-carboxylic acid]",95 to 100%
2,"COC(=O)c1nc(-c2ccc(Cl)c3c2OC(F)(F)O3)ccc1Cl [F68, Methyl 3-chloro-6-(7-chloro-2,2-difluorobenzo[d] [1,3]dioxol-4-yl)picolinate]",0 to 29%

# Same assay, conditions: post-emergence, 336 h, CIRAR: canada thistle (Cirsium arvense), 140 g ai/ha, 14 days after application, read-out: Visual Growth Reduction (%) 14 Days After Application, CIRAR
row,Structure (SMILES),pest or weed control at 140 g/ha
1,"O=C(O)c1nc(-c2ncc(Cl)cc2Cl)ccc1Cl [F195, 3′,5,5′-Trichloro-[2,2′-bipyridine]-6-carboxylic acid]",0 to 29%
2,"COC(=O)c1nc(-c2ccc(Cl)c3c2OC(F)(F)O3)ccc1Cl [F68, Methyl 3-chloro-6-(7-chloro-2,2-difluorobenzo[d] [1,3]dioxol-4-yl)picolinate]",0 to 29%

# Same assay, conditions: post-emergence, 336 h, CYPES: yellow nutsedge (Cyperus esculentus), 140 g ai/ha, 14 days after application, read-out: Visual Growth Reduction (%) 14 Days After Application, CYPES
row,Structure (SMILES),pest or weed control at 140 g/ha
1,"O=C(O)c1nc(-c2ncc(Cl)cc2Cl)ccc1Cl [F195, 3′,5,5′-Trichloro-[2,2′-bipyridine]-6-carboxylic acid]",0 to 29%

# Same assay, conditions: post-emergence, 336 h, DIGSA: crabgrass (Digitaria sanguinalis), 140 g ai/ha, 14 days after application, read-out: Visual Growth Reduction (%) 14 Days After Application, DIGSA
row,Structure (SMILES),pest or weed control at 140 g/ha
1,"O=C(O)c1nc(-c2ncc(Cl)cc2Cl)ccc1Cl [F195, 3′,5,5′-Trichloro-[2,2′-bipyridine]-6-carboxylic acid]",60 to 74%
2,"COC(=O)c1nc(-c2ccc(Cl)c3c2OC(F)(F)O3)ccc1Cl [F68, Methyl 3-chloro-6-(7-chloro-2,2-difluorobenzo[d] [1,3]dioxol-4-yl)picolinate]",0 to 29%

# Same assay, conditions: post-emergence, 336 h, ECHCG: barnyardgrass (Echinochloa crus-galli), 140 g ai/ha, 14 days after application, read-out: Visual Growth Reduction (%) 14 Days After Application, ECHCG
row,Structure (SMILES),pest or weed control at 140 g/ha
1,"O=C(O)c1nc(-c2ncc(Cl)cc2Cl)ccc1Cl [F195, 3′,5,5′-Trichloro-[2,2′-bipyridine]-6-carboxylic acid]",75 to 84%
2,"COC(=O)c1nc(-c2ccc(Cl)c3c2OC(F)(F)O3)ccc1Cl [F68, Methyl 3-chloro-6-(7-chloro-2,2-difluorobenzo[d] [1,3]dioxol-4-yl)picolinate]",0 to 29%

# Same assay, conditions: post-emergence, 336 h, IPOHE: ivy-leaf morning glory (Ipomoea hederacea), 140 g ai/ha, 14 days after application, read-out: Visual Growth Reduction (%) 14 Days After Application, IPOHE
row,Structure (SMILES),pest or weed control at 140 g/ha
1,"O=C(O)c1nc(-c2ncc(Cl)cc2Cl)ccc1Cl [F195, 3′,5,5′-Trichloro-[2,2′-bipyridine]-6-carboxylic acid]",95 to 100%
2,"COC(=O)c1nc(-c2ccc(Cl)c3c2OC(F)(F)O3)ccc1Cl [F68, Methyl 3-chloro-6-(7-chloro-2,2-difluorobenzo[d] [1,3]dioxol-4-yl)picolinate]",0 to 29%

# Same assay, conditions: post-emergence, 336 h, KCHSC: kochia (Bassia scoparia), 140 g ai/ha, 14 days after application, read-out: Visual Growth Reduction (%) 14 Days After Application, KCHSC
row,Structure (SMILES),pest or weed control at 140 g/ha
1,"O=C(O)c1nc(-c2ncc(Cl)cc2Cl)ccc1Cl [F195, 3′,5,5′-Trichloro-[2,2′-bipyridine]-6-carboxylic acid]",60 to 74%
2,"COC(=O)c1nc(-c2ccc(Cl)c3c2OC(F)(F)O3)ccc1Cl [F68, Methyl 3-chloro-6-(7-chloro-2,2-difluorobenzo[d] [1,3]dioxol-4-yl)picolinate]",0 to 29%

# Same assay, conditions: post-emergence, 336 h, ORYSA: rice (Oryza sativa), 140 g ai/ha, 14 days after application, read-out: Visual Growth Reduction (%) 14 Days After Application, ORYSA
row,Structure (SMILES),pest or weed control at 140 g/ha
1,"O=C(O)c1nc(-c2ncc(Cl)cc2Cl)ccc1Cl [F195, 3′,5,5′-Trichloro-[2,2′-bipyridine]-6-carboxylic acid]",30 to 44%
2,"COC(=O)c1nc(-c2ccc(Cl)c3c2OC(F)(F)O3)ccc1Cl [F68, Methyl 3-chloro-6-(7-chloro-2,2-difluorobenzo[d] [1,3]dioxol-4-yl)picolinate]",0 to 29%

# Same assay, conditions: post-emergence, 336 h, SETFA: giant foxtail (Setaria faberi), 140 g ai/ha, 14 days after application, read-out: Visual Growth Reduction (%) 14 Days After Application, SETFA
row,Structure (SMILES),pest or weed control at 140 g/ha
1,"O=C(O)c1nc(-c2ncc(Cl)cc2Cl)ccc1Cl [F195, 3′,5,5′-Trichloro-[2,2′-bipyridine]-6-carboxylic acid]",60 to 74%
2,"COC(=O)c1nc(-c2ccc(Cl)c3c2OC(F)(F)O3)ccc1Cl [F68, Methyl 3-chloro-6-(7-chloro-2,2-difluorobenzo[d] [1,3]dioxol-4-yl)picolinate]",0 to 29%

# Same assay, conditions: post-emergence, 336 h, SORVU: grain sorghum (Sorghum vulgare), 140 g ai/ha, 14 days after application, read-out: Visual Growth Reduction (%) 14 Days After Application, SORVU
row,Structure (SMILES),pest or weed control at 140 g/ha
1,"O=C(O)c1nc(-c2ncc(Cl)cc2Cl)ccc1Cl [F195, 3′,5,5′-Trichloro-[2,2′-bipyridine]-6-carboxylic acid]",85 to 94%
2,"COC(=O)c1nc(-c2ccc(Cl)c3c2OC(F)(F)O3)ccc1Cl [F68, Methyl 3-chloro-6-(7-chloro-2,2-difluorobenzo[d] [1,3]dioxol-4-yl)picolinate]",0 to 29%

# Same assay, conditions: post-emergence, 336 h, STEME: common chickweed (Stellaria media), 140 g ai/ha, 14 days after application, read-out: Visual Growth Reduction (%) 14 Days After Application, STEME
row,Structure (SMILES),pest or weed control at 140 g/ha
1,"O=C(O)c1nc(-c2ncc(Cl)cc2Cl)ccc1Cl [F195, 3′,5,5′-Trichloro-[2,2′-bipyridine]-6-carboxylic acid]",0 to 29%
2,"COC(=O)c1nc(-c2ccc(Cl)c3c2OC(F)(F)O3)ccc1Cl [F68, Methyl 3-chloro-6-(7-chloro-2,2-difluorobenzo[d] [1,3]dioxol-4-yl)picolinate]",0 to 29%

# Same assay, conditions: post-emergence, 336 h, TRZAS: wheat, spring (Triticum aestivum), 140 g ai/ha, 14 days after application, read-out: Visual Growth Reduction (%) 14 Days After Application, TRZAS
row,Structure (SMILES),pest or weed control at 140 g/ha
1,"O=C(O)c1nc(-c2ncc(Cl)cc2Cl)ccc1Cl [F195, 3′,5,5′-Trichloro-[2,2′-bipyridine]-6-carboxylic acid]",45 to 59%
